According to patent US20050147691A1, “Catalytic oxidation of peroxy salts” (priority 2002, published 2005):

Settings: DPS 1 mM, ambient temperature
Experimental: The oxidation performance of the oxidizer or oxidizer based formulations was determined by fading of the crystal violet dye solution color. The fading of the color was monitored by measuring the UV absorbance of the dye solution at 589 nm, before and after addition of oxidizer or oxidizer based formulation. The change in absorbance or fading of color of the dye solution, corresponds to the oxidation activity of the oxidizer. The greater the change in absorbance, more reactive is the oxidizer composition.
The oxidation activity was determined by measuring the destruction of crystal violet dye color at a wavelength of 589 nm by these formulations.
Crystal Violet Dye solution: Prepare crystal violet dye solution by dissolving 5 mg of crystal violet dye in 1000 mls of deionized water. Dilute the solution accordingly to get a sharp peak at 589 nm.
Procedure: • 1. […] Into 1500 mls beaker add 1000 mls of crystal violet dye solution. • 3. Using Hach spectrophotometer measure initial absorbance of the dye solution at 589 nm. • 4. […] Measure the absorbance at 589 nm after 1 and 2 hours reaction time. • 6. Calculate the percent decrease in crystal violet dye absorbance at 589 nm using the formula: [formula] Where Absi=Absorbance of crystal violet dye solution at the start of the experiment […]

Row | SMILES | effect on the oxidation performance of sodium dipersulfate, in words
1 | O.O.O.O.O.O=S(=O)([O-])[O-].[Cu+2] [copper sulfate, copper sulfate pentahydrate] | increased
2 | O.O.O.O.O.O.O.O=S(=O)([O-])[O-].[Zn+2] [zinc sulfate, zinc sulfate heptahydrate] | no effect
